Test results: PubChem BioAssay AID248 (DTP/NCI, 2004)
“And” between values parts separate entries of the source, which are not always exact repeats. Identical values can stand only once. Inconclusive results and toxic doses are left out.

Tested on: L1210 leukemia ip in BDF1 mice, survival T/C
Assay: NCI In Vivo Anticancer Drug Screen. Data for tumor model L1210 Leukemia (intraperitoneal) in B6D2F1 (BDF1) mice
Details: endpoint: mean survival time, higher = longer survival
Procedure, shortened: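 Value reflects the ratio of survival in compound-treated mice to survival in vehicle-treated controls, with both groups carrying the same transplanted tumor.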

[1] = dose: 100.0 mg/kg/injection, schedule: Q01DX009 (ip), vehicle: Klucel (hydroxypropylcellulose) (HPC)
[2] = dose: 200.0 mg/kg/injection, schedule: Q01DX009 (ip), vehicle: Klucel (hydroxypropylcellulose) (HPC)
[3] = dose: 100.0 mg/kg/injection, schedule: Q04DX002 (ip), vehicle: saline
[4] = dose: 200.0 mg/kg/injection, schedule: Q04DX002 (ip), vehicle: saline
[5] = dose: 400.0 mg/kg/injection, schedule: Q04DX002 (ip), vehicle: saline
[6] = dose: 100.0 mg/kg/injection, schedule: Q01DX001 (ip), vehicle: saline
[7] = dose: 200.0 mg/kg/injection, schedule: Q01DX001 (ip), vehicle: saline
[8] = dose: 400.0 mg/kg/injection, schedule: Q01DX001 (ip), vehicle: saline
[9] = dose: 400.0 mg/kg/injection, schedule: Q01DX009 (ip), vehicle: Klucel (hydroxypropylcellulose) (HPC)
[10] = dose: 100.0 mg/kg/injection, schedule: Q04DX002 (ip), vehicle: Klucel (hydroxypropylcellulose) (HPC)
[11] = dose: 200.0 mg/kg/injection, schedule: Q04DX002 (ip), vehicle: Klucel (hydroxypropylcellulose) (HPC)

`CCCCCCCCCCCCn1cnc2c(N)ncnc21` was tested. Which T/C (dose: 12.5 mg/kg/injection, schedule: Q01DX005 (ip), vehicle: other) did it give?
The T/C was 101 % of control.

And the T/C (dose: 25.0 mg/kg/injection, schedule: Q01DX005 (ip), vehicle: other)?
The T/C was 96 % of control.

And the T/C (dose: 50.0 mg/kg/injection, schedule: Q01DX005 (ip), vehicle: other)?
Its T/C is 95 % of control.

And the T/C (dose: 100.0 mg/kg/injection, schedule: Q01DX005 (ip), vehicle: other)?
The T/C was 96 % of control.

What about the T/C (dose: 200.0 mg/kg/injection, schedule: Q01DX005 (ip), vehicle: other) of the same compound?
Its T/C is 93 % of control.

Which T/C (dose: 12.5 mg/kg/injection, schedule: Q04DX002 (ip), vehicle: Klucel (hydroxypropylcellulose) (HPC)) does the source give for `CC(C)(C)C1CCC(N=C(N)CSS(=O)(=O)O)CC1` (stereo not given) here?
Its T/C is 97 % of control.

And the T/C (dose: 25.0 mg/kg/injection, schedule: Q04DX002 (ip), vehicle: Klucel (hydroxypropylcellulose) (HPC))?
Its T/C is 95 % of control.

Which T/C (dose: 50.0 mg/kg/injection, schedule: Q01DX009 (ip), vehicle: Klucel (hydroxypropylcellulose) (HPC)) does the source give for `CC1Nc2ccccc2N2C(=O)CCC12` (stereo not given) here?
The T/C was 106 % of control.

What about the T/C [1] of the same compound?
Its T/C is 103 % of control.

What about the T/C [2] of the same compound?
Its T/C is 106 % of control.

With `O/N=C(/C(=N/O)c1ccccc1)c1ccccc1.O/N=C(/C(=N/O)c1ccccc1)c1ccccc1.[Ni]` as the compound, how does the T/C (dose: 100.0 mg/kg/injection, schedule: Q04DX002 (ip), vehicle: saline with Tween-80) read?
Its T/C is 97 % of control.

And the T/C (dose: 200.0 mg/kg/injection, schedule: Q04DX002 (ip), vehicle: saline with Tween-80)?
The T/C was 97 % of control.

What about the T/C (dose: 400.0 mg/kg/injection, schedule: Q04DX002 (ip), vehicle: saline with Tween-80) of the same compound?
Its T/C is 93 % of control.

What does the source list for `COP(=O)(O)NC(C)=O`?
T/C [3]: 105 % of control; T/C [4]: 108 % of control; T/C [5]: 91 % of control

`O=C(O)/C(Br)=C\c1cccc([N+](=O)[O-])c1` was tested. Which T/C [6] did it give?
The T/C was 107 % of control.

What about the T/C [7] of the same compound?
The T/C was 98 % of control.

And the T/C [8]?
Its T/C is 109 % of control.

How did the T/C [1] turn out when `O=C(Nc1cccc(F)c1)Nc1ccc([N+](=O)[O-])cc1Cl` was run?
Its T/C is 101 % of control.

And the T/C [2]?
Its T/C is 100 % of control.

And the T/C [9]?
Its T/C is 103 % of control.

For `CCCCCCCCC(O)CCCCCCCCC(=O)O` (stereo not given), which T/C (dose: 100.0 mg/kg/injection, schedule: Q01DX009 (ip), vehicle: saline with Tween-80) is on record?
The T/C was 101 % of control.

What about the T/C (dose: 200.0 mg/kg/injection, schedule: Q01DX009 (ip), vehicle: saline with Tween-80) of the same compound?
The T/C was 97 % of control.

And the T/C (dose: 400.0 mg/kg/injection, schedule: Q01DX009 (ip), vehicle: saline with Tween-80)?
The T/C was 86 % of control.

What does the source list for `NC(=O)c1nc2ccccc2nc1C(N)=O`?
T/C [1]: 92 % of control; T/C (dose: 100.0 mg/kg/injection, schedule: Q04DX003 (ip), vehicle: Klucel (hydroxypropylcellulose) (HPC)): 92 % of control; T/C [2]: 92 % of control; T/C (dose: 200.0 mg/kg/injection, schedule: Q04DX003 (ip), vehicle: Klucel (hydroxypropylcellulose) (HPC)): 92 % of control; T/C [9]: 96 % of control; T/C (dose: 400.0 mg/kg/injection, schedule: Q04DX003 (ip), vehicle: Klucel (hydroxypropylcellulose) (HPC)): 90 % of control

What does the source list for `NC(=Nc1ccc(N)cc1)c1ccc(C(N)=Nc2ccc(N)cc2)cc1`?
T/C (dose: 2.5 mg/kg/injection, schedule: Q01DX015 (ip), vehicle: water): 98 % of control; T/C (dose: 5.0 mg/kg/injection, schedule: Q01DX015 (ip), vehicle: water): 100 % of control; T/C (dose: 10.0 mg/kg/injection, schedule: Q01DX015 (ip), vehicle: water): 114 % of control; T/C (dose: 20.0 mg/kg/injection, schedule: Q01DX015 (ip), vehicle: water): 100 % of control; T/C (dose: 36.7 mg/kg/injection, schedule: Q01DX015 (ip), vehicle: water): 109 % of control; T/C (dose: 73.5 mg/kg/injection, schedule: Q01DX015 (ip), vehicle: water): 105 % of control

For `Cc1ccc(CN(C)N=Nc2ccccc2)cc1`, which T/C [10] is on record?
Its T/C is 91 % of control.

And the T/C [11]?
The T/C was 102 % of control.

Which T/C (dose: 50.0 mg/kg/injection, schedule: Q04DX002 (ip), vehicle: Klucel (hydroxypropylcellulose) (HPC)) does the source give for `COc1ccc(/C=N\NC(=O)c2ccncc2)cc1OC` here?
Its T/C is 101 % of control.

And the T/C [10]?
Its T/C is 106 % of control.

And the T/C [11]?
Its T/C is 109 % of control.

What about the T/C (dose: 400.0 mg/kg/injection, schedule: Q04DX002 (ip), vehicle: Klucel (hydroxypropylcellulose) (HPC)) of the same compound?
The T/C was 103 % of control.

Which T/C (dose: 100.0 mg/kg/injection, schedule: Q04DX003 (ip), vehicle: carboxymethylcellulose (CMC)) does the source give for `O=C(O)CCCCCN1C(=O)C2OC3C(=O)N(CCCCCC(=O)O)C(=O)C3C2C1=O` (stereo not given) here?
The T/C was 95 % of control.

What about the T/C (dose: 200.0 mg/kg/injection, schedule: Q04DX003 (ip), vehicle: carboxymethylcellulose (CMC)) of the same compound?
Its T/C is 95 % of control.

What about the T/C (dose: 400.0 mg/kg/injection, schedule: Q04DX003 (ip), vehicle: carboxymethylcellulose (CMC)) of the same compound?
Its T/C is 97 % of control.

What does the source list for `CS(=O)(=O)n1c(C(Cl)c2ccccc2)nc2ccccc21` (stereo not given)?
T/C [6]: 102 % of control; T/C [7]: 104 % of control; T/C [8]: 120 % of control

Which results are given for `COc1cc(C=Nc2cccc(Br)c2)ccc1N(CCCl)CCCl`?
T/C (dose: 1.4 mg/kg/injection, schedule: Q01DX015 (ip), vehicle: carboxymethylcellulose (CMC)): 107 % of control; T/C (dose: 2.2 mg/kg/injection, schedule: Q01DX015 (ip), vehicle: carboxymethylcellulose (CMC)): 111 % of control; T/C (dose: 3.3 mg/kg/injection, schedule: Q01DX009 (ip), vehicle: saline): 101 % of control; T/C (dose: 3.3 mg/kg/injection, schedule: Q01DX015 (ip), vehicle: carboxymethylcellulose (CMC)): 113 % of control; T/C (dose: 5.0 mg/kg/injection, schedule: Q01DX009 (ip), vehicle: saline): 116 % of control; T/C (dose: 5.0 mg/kg/injection, schedule: Q01DX015 (ip), vehicle: carboxymethylcellulose (CMC)): 119 % of control and 121 % of control; T/C (dose: 9.0 mg/kg/injection, schedule: Q01DX009 (ip), vehicle: saline): 109 % of control; T/C (dose: 9.0 mg/kg/injection, schedule: Q01DX015 (ip), vehicle: carboxymethylcellulose (CMC)): 159 % of control; T/C (dose: 15.0 mg/kg/injection, schedule: Q01DX009 (ip), vehicle: saline): 111 % of control; T/C (dose: 15.0 mg/kg/injection, schedule: Q01DX015 (ip), vehicle: carboxymethylcellulose (CMC)): 105 % of control; T/C (dose: 22.0 mg/kg/injection, schedule: Q01DX001 (ip), vehicle: carboxymethylcellulose (CMC)): 111 % of control; T/C (dose: 25.0 mg/kg/injection, schedule: Q01DX015 (ip), vehicle: carboxymethylcellulose (CMC)): 94 % of control and 97 % of control; T/C (dose: 25.0 mg/kg/injection, schedule: Q04DX003 (ip), vehicle: saline): 86 % of control; T/C (dose: 33.0 mg/kg/injection, schedule: Q01DX001 (ip), vehicle: carboxymethylcellulose (CMC)): 108 % of control; T/C (dose: 50.0 mg/kg/injection, schedule: Q01DX001 (ip), vehicle: carboxymethylcellulose (CMC)): 113 % of control; T/C (dose: 50.0 mg/kg/injection, schedule: Q04DX003 (ip), vehicle: saline): 119 % of control; T/C (dose: 100.0 mg/kg/injection, schedule: Q01DX001 (ip), vehicle: carboxymethylcellulose (CMC)): 117 % of control; T/C (dose: 200.0 mg/kg/injection, schedule: Q01DX001 (ip), vehicle: carboxymethylcellulose (CMC)): 117 % of control; T/C (dose: 400.0 mg/kg/injection, schedule: Q01DX001 (ip), vehicle: carboxymethylcellulose (CMC)): 123 % of control

How did the T/C [3] turn out when `Cn1c2c(c(=O)n(C)c1=O)C(C=O)C(=O)N2` (stereo not given) was run?
The T/C was 101 % of control.

What about the T/C [4] of the same compound?
The T/C was 87 % of control.

And the T/C [5]?
The T/C was 90 % of control.

Which results are given for `COc1ccc([N+](=O)[O-])c2c1CONC2(C)C(=O)O` (stereo not given)?
T/C (dose: 100.0 mg/kg/injection, schedule: Q04DX003 (ip), vehicle: acetone): 98 % of control; T/C (dose: 200.0 mg/kg/injection, schedule: Q04DX003 (ip), vehicle: acetone): 95 % of control; T/C (dose: 400.0 mg/kg/injection, schedule: Q04DX003 (ip), vehicle: acetone): 98 % of control

With `O=C(OC/C(=C\Cl)OC(=O)c1ccc([N+](=O)[O-])cc1)c1ccc([N+](=O)[O-])cc1` as the compound, how does the T/C [1] read?
Its T/C is 100 % of control.

And the T/C [2]?
The T/C was 105 % of control.

And the T/C [9]?
Its T/C is 100 % of control.

How did the T/C (dose: 1.56 mg/kg/injection, schedule: Q01DX009 (ip), vehicle: DMSO) turn out when `Cc1ccc2cccnc2c1N` (tested in a mixture with another compound) was run?
Its T/C is 101 % of control.

And the T/C (dose: 3.12 mg/kg/injection, schedule: Q01DX009 (ip), vehicle: DMSO)?
Its T/C is 97 % of control.

And the T/C (dose: 6.25 mg/kg/injection, schedule: Q01DX009 (ip), vehicle: DMSO)?
The T/C was 95 % of control and 97 % of control.

What about the T/C (dose: 12.5 mg/kg/injection, schedule: Q01DX009 (ip), vehicle: DMSO) of the same compound?
Its T/C is 100 % of control.

What about the T/C (dose: 25.0 mg/kg/injection, schedule: Q01DX009 (ip), vehicle: DMSO) of the same compound?
Its T/C is 94 % of control and 88 % of control.

And the T/C (dose: 25.0 mg/kg/injection, schedule: Q04DX003 (ip), vehicle: DMSO)?
The T/C was 107 % of control.

What about the T/C (dose: 50.0 mg/kg/injection, schedule: Q04DX003 (ip), vehicle: DMSO) of the same compound?
The T/C was 86 % of control.

What about the T/C (dose: 100.0 mg/kg/injection, schedule: Q04DX003 (ip), vehicle: DMSO) of the same compound?
The T/C was 98 % of control.
